The test system of test [1] is HeLa cells. As to the kind of experiment: HeLa cell viability assay (MTS): inhibition of SO1861-mediated endosomal escape by polymeric structures. The following applies: […] dianthin-EGF + SO1861 curve, PAMAM 500 nM, chloroquine 500 nM, dendron 667 nM, 72 hr. The format is cell-based, human. Here is the method: HeLa cells were seeded in DMEM (PAN-Biotech GmbH) supplemented with 10% fetal bovine serum (PAN-Biotech GmbH) and 1% penicillin/streptomycin (PAN-Biotech GmbH), in a 96 well plate at 5,000 c/w in 100 μL/well and incubated overnight at 37° C. and 5% CO2. The next day 20× concentrated stocks of the PAMAM, PAMAM-conjugates, G4-dendron (prepared in Example 3) or chloroquine (Sigma Aldrich) samples were prepared in DMEM. The media was removed from the cell culture plate and replaced by […] culture media, followed by the addition of 10 μL sample/well (from the 20× concentrated stocks) and a 45 min incubation at 37° C. […] Followed by 15 sec sonication and a brief re-heating at 50° C. for 1 min, while shaking at 1,250 rpm. Subsequently a serial dilution of SO1861 was prepared in PBS.
As control for the inhibition of endosomal acidification chloroquine was used.

Test [2] deals with HER14 cells. As to the kind of experiment: viability assay with HER14 cells (MTT). It counts as cell-based. The note with it: 0.1 nM dianthin-EGF, 72 h. The method, then:
To test the efficacy of the invention, we conducted a viability assay with HER14 cells. These cells are fibroblasts stably transfected with the human epidermal growth factor receptor and therefore target cells for the targeted toxin dianthin-EGF. HER14 cells (2,000 cells/100 μL/well) were seeded into wells of 96-well-cell culture plates and incubated for 24 h in DMEM medium supplemented with 10% fetal calf serum and 1% penicillin/streptomycin at 37° C., 5% CO2 and 98% humidity. The different test substances (see results and FIG. 21) were then added in triplicates in a volume of 25 μL and supplemented with further 25 μL of medium. After an incubation of 72 h, 30 μL 3-(4,5-dimethylthiazol-2-yl)-2,5-diphenyltetrazolium bromide (0.5 mg/mL in water) was added per well and incubated for 2 h. Thereafter, the medium was carefully removed and replaced by an aqueous solution containing 10% (v/v) isopropanol, 5% (w/v) sodium dodecyl sulfate and 400 mM HCl, and incubated for 5 min. Solubilized formazan was photometrically quantitated at […] in a microplate reader (Spectra MAX 340 PC, Molecular Devices, Sunnyvale, Calif., USA). Untreated cells were normalized to 1 and all samples referred to the untreated control. Significance was determined by unpaired two-sample t-tests.

Each structure is given as a SMILES string.

Take `CCN(CC)CCCC(C)Nc1ccnc2cc(Cl)ccc12` (centres unmarked) [chloroquine]: the “inhibition of SO1861-mediated endosomal escape of the targeted toxin and subsequent cell killing” value in test [1] is given as “inhibit”.
As for `C[C@@H]1O[C@@H](O[C@H]2[C@H](OC(=O)[C@]34CCC(C)(C)C[C@H]3C3=CC[C@@H]5[C@@]6(C)CC[C@H](O[C@H]7O[C@H](C(=O)O)[C@@H](O)[C@H](O[C@@H]8OC[C@@H](O)[C@H](O)[C@H]8O)[C@H]7O[C@@H]7O[C@H](CO)[C@H](O)[C@H](O)[C@H]7O)[C@@](C)(C=O)[C@@H]6CC[C@@]5(C)[C@]3(C)CC4)O[C@H](C)[C@H](O[C@@H]3O[C@H](C)[C@@H](O)[C@H](O)[C@H]3O)[C@@H]2O)[C@H](O)[C@H](O)[C@H]1O[C@@H]1OC[C@@H](O)[C@H](O[C@@H]2OC[C@@H](O)[C@H](O)[C@H]2O)[C@H]1O` [SA1641], the “effect on the toxicity of dianthin-EGF” value in test [2] is reported as “death of al cells”.
